Data on two compounds can be found in patent publication US20120034641A1, “BIOLOGICAL INFORMATION ACQUISITION METHOD” (SONY CORPORATION, priority 2010, published 2012).

For experiment [1] the following is noted: intake of alcohol while eating vs no alcohol; FIG. 10.
Protocol: The tip of index finger was gently wiped with a paper towel soaked with pure water. The bottom end of a microtube containing 50 μL of pure water was held with the thumb, with the upper opening of the microtube in contact with the tip of the index finger (see FIG. 1A). With the microtube held with the index finger and the thumb, the microtube was inverted to contact the pure water to the skin surface of the index finger for 1 minute.
Eleven subjects were allowed to eat the same food during the time period of from 12:00 to 13:00, and the epidermal fluid was collected at 12:00, 13:00, 14:00, 15:00, and 16:00.
The test system of experiment [2] is three-dimensional culture skin (Kurabo; EPI-200X). Nature of the experiment: Nicotinamide metabolites on the epidermis surface of cultured skin after adding cortisol to the culture solution. It is filed as cell-based. To be noted: glucocorticoid (cortisol) 50 nM or 500 nM in culture solution, sample collected from epidermis side after 1 hour. As to the method:
Assessment was made as to the ability of a cultured skin to secrete nicotinamide metabolites on the horny layer of epidermis surface in response to cortisol or glucose. A three-dimensional culture skin (Kurabo; EPI-200X) was cultured with its dermis side in contact with the culture solution. Glucocorticoid (cortisol) was added to the culture solution to make the final concentration 50 nM or 500 nM. After 1 hour, 150 μL of PBS was contacted to the epidermis side, and the sample was collected. The amounts of NAD+, NADH, NADP+, and NADPH in the sample were then measured using commercially available colorimetric analysis kits (Amplite Colorimetric NAD/NADH Assay Kit, Amplite Colorimetric NADP/NADPH Assay Kit; ABD Bioquest Inc.).

`CCO` [alcohol]: the “transient increase in NAD+/NADH ratio in epidermal fluid” value in experiment [1] is reported as “more enhanced”.
In the case of `C[C@]12CCC(=O)C=C1CC[C@@H]1[C@@H]2[C@@H](O)C[C@@]2(C)[C@H]1CC[C@]2(O)C(=O)CO` [glucocorticoid, cortisol], the “NAD+/NADH ratio” value in experiment [2] (FIG. 12A) is “increased concentration dependently”. Moreover, in experiment [2] (FIG. 12B), the “NADP+/NADPH ratio” value is “no change”.
